Common to all, as to assay: NCI tumour cell line growth inhibition, 48 h
Assay [1] concerns A498 renal.
The subject of assay [2] is SK-MEL-28 melanoma.
The subject of assay [3] is CAKI-1 renal.
Assay [4] relates to OVCAR-3 ovarian.
Assay [5] has as its system SF-295 CNS.
Assay [6] deals with NCI-H522 lung.
Assay [7] has as its system NCI-H460 lung.
The subject of assay [8] is SF-268 CNS.
Assay [9] concerns HCT-116 colon.
Assay [10] concerns LOX IMVI melanoma.

The source of these data is PubChem BioAssay (NCI).

Molecules are shown by their SMILES.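 Growth conditions: 96-well plates. Treatment: test compound, 48 hours, 5 concentrations. Analysis: linear interpolation between bracketing concentrations; unreached endpoints set to highest concentration. GI50 is the concentration that inhibits growth by half. Definition used: TGI = concentration required for complete inhibition of growth.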

`COc1ccc(-c2nc(-c3cc(OC)cc(OC)c3)[nH]c2-c2ccc(OC)cc2)cc1`: the GI50 in assay [1] is above 100 µM; in assay [2], above 100 µM; in assay [3], 6.24 µM; in assay [4] it was 5.95 µM; in assay [5], 5.51 µM; in [6] it was 3.42 µM. The GI50 is 5.98 µM in [7], above 100 µM in [8] and 8.06 µM in assay [9]. For the same molecule, the TGI in assay [1] was above 100 µM; in [2], above 100 µM; in assay [3], above 100 µM; in assay [4], above 100 µM; in assay [5], above 100 µM; in [6] it was 59.3 µM. Also, the TGI in assay [7], in [8] and in [9] was above 100 µM in each case.

Take `Cc1ccc(C)c(N2C/C(=N\NC(=O)CC#N)C(c3nc4ccccc4s3)C(=O)C2=O)c1` (stereo not drawn): the TGI in [1], in assay [2], in assay [3], in assay [4], in assay [5] and in assay [6] was above 100 µM throughout. The TGI in assay [7], in [8] and in [9] was above 100 µM throughout.

With `O=C1CCCN1c1ccccc1I(=O)=O`, the GI50 in assay [1], in assay [2], in [3], in [10], in assay [4] and in [5] was above 100 µM in each case. The GI50 in [6], in [7] and in assay [8] was above 100 µM each time. The TGI in [1], in assay [2], in [3], in [10], in assay [4] and in assay [5] was above 100 µM in each case. Further, the TGI in assay [6], in assay [7] and in assay [8] was above 100 µM each time.

For the molecule `CC(=O)N1CCN(c2ccc(OCC3COC(Cn4ccnc4)(c4ccc(Cl)cc4Cl)O3)cc2)CC1` (stereo not drawn), the TGI is above 100 µM in [1]; above 100 µM in assay [2]; above 100 µM in assay [3]; 36 µM in [10]; above 100 µM in assay [4]; 99.7 µM in assay [6]. The values for the TGI in assay [7] and in [9] were above 100 µM and 76.6 µM, respectively.

Consider `CC1=C(C#N)C(=O)CC(c2ccc(Cl)cc2)N(C)N1` (stereo not drawn), for which the TGI in [1], in assay [2], in assay [3], in assay [10], in assay [5] and in assay [6] was above 100 µM throughout. The TGI in [7], in assay [8] and in assay [9] was above 100 µM throughout.

Turning to `C=CC(=O)N1CN(C(=O)C=C)CN(C(=O)C=C)C1`, the GI50 in [1] is 15.3 µM; in [2], 4.02 µM; in [3], 1.63 µM; in [10], 1.72 µM; in assay [4], 2.57 µM; in [6], 1.65 µM. The GI50 in assay [7] is 21.7 µM; in assay [8] it was 11 µM; in [9], 1.77 µM. The TGI in [1] is 32.4 µM; in [2], 16.2 µM; in assay [3], 3.7 µM; in assay [10], 5.78 µM; in assay [4], 7.99 µM; in assay [6], 3.51 µM. Also, the TGI in assay [7] stood at 50.4 µM; in assay [8] it was 50.6 µM; in [9] it was 3.33 µM.

Consider `COc1ccc(-c2nn(-c3cccc(Cl)c3)cc2-c2cc(-c3ccccc3)[nH]c(=O)c2C#N)cc1`, for which the GI50 was 0.171 µM in assay [1]; 2.93 µM in assay [2]; 1.3 µM in [3]; 8.97 µM in [10]; 2.84 µM in assay [4]; 3.59 µM in assay [6]. In addition, the results for the GI50 in assay [7], in assay [8] and in assay [9] were 2.35 µM, 2.59 µM and 1.71 µM, respectively. Besides, the TGI was 1.6 µM in assay [1]; above 50 µM in [2]; 6.09 µM in assay [3]; above 50 µM in assay [10]; 16.8 µM in assay [4]; 20.8 µM in assay [6]. Besides, the TGI was above 50 µM in assay [7], above 50 µM in assay [8] and 32.8 µM in [9].

As to `COc1cc(/C=C\c2cc(OC)c(OC)c(OC)c2)cc(N/C=C\C(=O)c2c[nH]c3ccccc23)c1OC`, the GI50 was 1.32 µM in assay [1]; 1.86 µM in assay [2]; 1.58 µM in assay [3]; 1.72 µM in assay [4]; 7.94 µM in [5]; 1.76 µM in assay [6]. The GI50 in assay [7] is 5.6 µM; in assay [8] it was 3.57 µM; in assay [9] it was 1.76 µM. The TGI stood at 12 µM in [1]; 3.79 µM in assay [2]; 2.95 µM in [3]; 3.21 µM in assay [4]; 22.9 µM in assay [5]; 3.7 µM in assay [6]. In addition, the TGI in assay [7] was found to be 27.1 µM; in [8], 15.6 µM; in [9] it was 3.49 µM.

For `CCOP(=O)(OCC)C(C(=O)OC)C(=O)C(=O)Nc1ccc(Cl)cc1Cl` (stereo not drawn), the TGI in [1], in assay [2], in assay [3], in [10], in [4] and in assay [6] was above 100 µM each time. Also, the TGI in [7], in assay [8] and in [9] was above 100 µM in each case.

`COc1cc2c(/C=N\N=C(N)N)c[nH]c2cc1C`: the GI50 in assay [1] was 27.3 µM; in assay [3], 37.5 µM; in assay [10], 31.8 µM; in [4], 13.5 µM; in assay [5] it was 15.4 µM; in assay [6], 17.3 µM. Further, the GI50 in assay [7] was 14.7 µM; in assay [8], 12.5 µM; in [9], 14.6 µM. Moreover, the TGI in assay [1] is 73.9 µM; in assay [3], above 100 µM; in assay [10] it was above 100 µM; in assay [4], 27.3 µM; in [5], 43.4 µM; in [6], 32.9 µM. The TGI in assay [7] was 27.8 µM; in assay [8] it was 28.7 µM; in assay [9], 27.7 µM.
